Experiments:
Type in all cases: cell-based
HEK293T cells = experiment: Puromycin labeling (puromycin-incorporation assay); conditions: Homo sapiens, HEK-293T; 3 h treatment, puromycin 10 μg/ml 5 minutes; read-out: IC-50, nascent polypeptide puromycin labeling
Method: FIGS. 3A-F: i14G1-10 and i14G1-12 inhibit mRNA translation and sensitize cell survival of eIF4G1 and eIF1 depleted cells. (3A) In-vitro translation using rabbit reticulocyte lysate which was pre-incubated with different concentrations of i14G1-10 or i14G1-12 for 10 minutes followed by the addition of capped firefly luciferase mRNA. After 90 minutes at 30° C., the luminescence signal was measured and the IC50 was calculated. The data represents mean±SEM of 6 independent repeats. (3B) HEK293T cells were treated with DMSO (vehicle control), and sub-cytotoxic concentrations of i14G1-10 (20 μM) and i14G1-12 (10 μM) for 3h. Cell lysates were then subjected to sucrose gradient sedimentation to obtain polysome profiles. (3C) HEK293T cells were treated with the indicated concentrations of i14G1-10 and i14G-12 for 3 h, followed by the addition of puromycin (10 μg/ml) for 5 minutes, after which cells were lysed and analyzed by western blot using an anti-puromycin antibody and anti-GAPDH antibody that serves as a loading control. […] The calculated IC-50 is shown. […] The calculated IC-50 is shown. (3E) The graphs represent cell viability of the indicated cell lines in the presence of increasing concentrations of i14G1-10 and i14G1, analyzed by Luminescent Cell Viability Assay. […]

A549 = experiment: CellTiter-Glo luminescent cell viability assay; conditions: lung cancer (A549), increasing concentrations, 48 h
Method: (§1) FIGS. 3A-F: i14G1-10 and i14G1-12 inhibit mRNA translation and sensitize cell survival of eIF4G1 and eIF1 depleted cells. (3A) In-vitro translation using rabbit reticulocyte lysate which was pre-incubated with different concentrations of i14G1-10 or i14G1-12 for 10 minutes followed by the addition of capped firefly luciferase mRNA. After 90 minutes at 30° C., the luminescence signal was measured and the IC50 was calculated. The data represents mean±SEM of 6 independent repeats. (3B) HEK293T cells were treated with DMSO (vehicle control), and sub-cytotoxic concentrations of i14G1-10 (20 μM) and i14G1-12 (10 μM) for 3h. Cell lysates were then subjected to sucrose gradient sedimentation to obtain polysome profiles. (3C) HEK293T cells were treated with the indicated concentrations of i14G1-10 and i14G-12 for 3 h, followed by the addition of puromycin (10 μg/ml) for 5 minutes, after which cells were lysed and analyzed by western blot using an anti-puromycin antibody and anti-GAPDH antibody that serves as a loading control. The graph represents the mean±SEM chemiluminescence signal intensity of puromycin labeling normalized to GAPDH of 3 independent experiments. The calculated IC-50 is shown. (3D) HEK293T cells were transfected with either control or eIF4G1 siRNA in the absence or presence of eIF4G1 expression plasmid. As the eIF4G1 siRNA pool is directed against the 3′UTR, which is absent from the eIF4G1 expression plasmid, the exogenous eIF4G1 is resistant to the siRNA. 48 h after transfection, cells were treated with the indicated concentrations of i14G1-10 and i14G-12 for 3 h, followed by a 5 minutes puromycin pulse as described in 3C. The graph represents the mean±SEM chemiluminescence signal intensity of puromycin labeling normalized to GAPDH of 3 independent experiments. The calculated IC-50 is shown. (3E) The graphs represent cell viability of the indicated cell lines in the presence of increasing concentrations of i14G1-10 and i14G1, analyzed by Luminescent Cell Viability Assay. (3F) Pie charts showing the cell cycle distribution of HEK293T cells treated with DMSO, i14G1-10 and i14G1-12.
(§2) The indicated cell lines in 96-well plates were treated with increasing concentrations of i14G1-10 and i14G1-12. After 48 h, cells were subjected to cell viability measurement using CellTiter-Glo Luminescent Assay (Cat no. G7571, Promega).
(§3) This was true in breast cancer (MCF7), lung cancer (A549), colorectal cancer (HCT116), ovarian cancer (OVCAR8) and in a bone cancer sarcoma cell line (U20S). To examine whether the growth defect is associated with cell cycle progression, control and drug treated cells were subjected to DNA staining by propidium iodide and then a flow cytometry analysis to determine their distribution in the sub-G1 (dead cells), G1, S and G2/M phases of the cell cycle.

HCT116 = experiment: CellTiter-Glo luminescent cell viability assay; conditions: colorectal cancer (HCT116), increasing concentrations, 48 h
Method: as §1, §2, §3

MCF7 = experiment: CellTiter-Glo luminescent cell viability assay; conditions: breast cancer (MCF7), increasing concentrations, 48 h
Method: as §1, §2, §3

OVCAR8 = experiment: CellTiter-Glo luminescent cell viability assay; conditions: ovarian cancer (OVCAR8), increasing concentrations, 48 h
Method: as §1, §2, §3

U20S = experiment: CellTiter-Glo luminescent cell viability assay; conditions: bone cancer sarcoma cell line (U20S), increasing concentrations, 48 h
Method: as §1, §2, §3

SMILES	IC50 (HEK293T cells) [µM]	growth/survival (A549)	growth/survival (HCT116)	growth/survival (MCF7)	growth/survival (OVCAR8)	growth/survival (U20S)
O=C(/C=C/Sc1ccc(C(F)(F)F)cn1)c1ccccc1 [i14G1-10]	20.4	inhibited the growth/survival	inhibited the growth/survival	inhibited the growth/survival	inhibited the growth/survival	inhibited the growth/survival
Cn1ccnc1S/C(=C/C=C(C#N)C#N)c1ccc(Cl)cc1 [i14G1-12]	4.96	inhibited the growth/survival	inhibited the growth/survival	inhibited the growth/survival	inhibited the growth/survival	inhibited the growth/survival
